# Patent US10206398B2, “Five-membered C-N-attached aryl sulphide and aryl sulphoxide derivatives as pesticides” (BAYER CROPSCIENCE AKTIENGESELLSCHAFT, priority 2014, dated 2019)
# Where “and” joins values, the source holds several entries; their conditions need not be identical. Equal values may be shown once. Read-outs that look alike come from different tables or passages of the source.
# Experiments:
# Tetranychus urticae = Tetranychus urticae - spray test, OP-resistant (bean leaf discs, 6 days); type: in vivo; conditions: 500 g/ha, after 6 days; for pest or weed control at 500 g/ha: Tetranychus urticae, foliar, 144 h, read-out: efficacy (spider mites killed)
# Experimental: 5. Tetranychus urticae—Spray Test, OP-Resistant
# Solvent: 78.0 parts by weight of acetone
# • 1.5 parts by weight of dimethylformamide Emulsifier: alkylaryl polyglycol ether
# To produce a suitable preparation of active compound, 1 part by weight of active compound is dissolved using the stated parts by weight of solvent and made up with water containing an emulsifier concentration of 1000 ppm until the desired concentration is attained. To produce further test concentrations, the preparation is diluted with emulsifier-containing water.
# Discs of bean leaves (Phaseolus vulgaris) infested with all stages of the greenhouse red spider mite (Tetranychus urticae) are sprayed with an active compound preparation of the desired concentration.
# After 6 days, the efficacy in % is determined. 100% means that all the spider mites have been killed; 0% means that no spider mites have been killed.
# [1] = log P determination by HPLC on reversed-phase columns (C 18), analogous to OECD Guideline 117; type: physicochemical; conditions: for chromatographic logP: reversed-phase HPLC column (C 18); for logP[a]: method [a]; for logP[b]: method [b]
# Experimental: The log P values were determined analogously to OECD Guideline 117 (EC Directive 92/69/EEC) by HPLC (high-performance liquid chromatography) using reversed-phase columns (C 18), by the following methods: [a] The LC-MS determination in the acidic range was effected at pH 2.7 with 0.1% aqueous formic acid and acetonitrile (contains 0.1% formic acid) as eluents; linear gradient from 10% acetonitrile to 95% acetonitrile. log P[a] is also referred to as log P(HCOOH). [b] LC-MS determination in the neutral range was effected at pH 7.8 with 0.001 molar aqueous ammonium hydrogencarbonate solution and acetonitrile as eluents; linear gradient from 10% acetonitrile to 95% acetonitrile. log P[b] is also referred to as log P(neutral). Calibration is effected with solutions of a homologous series of unbranched alkan-2-ones (having 3 to 16 carbon atoms) with known log P values (log P values determined on the basis of the retention times by linear interpolation between two successive alkanones).
# [2] = pH 2.7, HPLC, acidic range, pH 2.7, 0.1% aqueous formic acid and acetonitrile, read-out: log P(HCOOH)
# [3] = pH 2.7, Table 3, HPLC, acidic range, pH 2.7, read-out: logP[a]
# [4] = pH 7.8, HPLC, neutral range, pH 7.8, 0.001 molar aqueous ammonium hydrogencarbonate and acetonitrile, read-out: log P(neutral)
# [5] = pH 7.8, Table 3, HPLC, neutral range, pH 7.8, read-out: logP[b]
logP[a] [1],logP[b] [1],Structure (SMILES),efficacy (spider mites killed) (Tetranychus urticae),other results
–,–,Cc1cc(F)c(N2C(=O)CNC2=O)cc1[S+]([O-])CC(F)(F)F (centres unmarked) [IIb-1],–,"pest or weed control at 500 g/ha (Tetranychus urticae): 100%; chromatographic logP [1, 2]: 1.33; chromatographic logP [1, 3]: 1.33; chromatographic logP [1, 4]: 1.31; chromatographic logP [1, 5]: 1.31"
4.05,3.96,Cc1cc(Cl)c(N2C(=O)CN(C(=O)Nc3ccc(F)cc3)C2=O)cc1SCC(F)(F)F [compound 94],100%,–
–,–,"Cc1cc(F)c(N2C(=O)CN(C(=O)NCC(C)C)C2=O)cc1SCC(F)(F)F [Ex. No. 12, 3-[2-Fluoro-4-methyl-5-(2,2,2-trifluoroethylsulphanyl)phenyl]-N-isobutyl-2,4-dioxoimidazolidine-1-carboxamide]",–,"pest or weed control at 500 g/ha (Tetranychus urticae): 100%; chromatographic logP [1, 2]: 3.67; chromatographic logP ([1]; pH 2.7, method [a], read-out: logP[a]): 3.67; chromatographic logP [1, 4]: 3.58; chromatographic logP ([1]; pH 7.8, method [b], read-out: logP[b]): 3.58"
4.51,4.38,Cc1cc(Cl)c(N2C(=O)CN(C(=O)Nc3cccc(CC(F)(F)F)c3)C2=O)cc1SCC(F)(F)F [compound 58],100%,–
3.75,3.66,Cc1cc(C)c(N2C(=O)CN(C(=O)NCc3ccccc3)C2=O)cc1SCC(F)(F)F [compound 92],90%,–
3.81,3.61,Cc1cc(Cl)c(N2C(=O)CN(C(=O)NCc3ccccc3)C2=O)cc1SCC(F)(F)F [compound 57],100%,–
1.72,1.61,Cc1cc(F)c(N2C(=O)CN(C(=O)N3CCN(C)CC3)C2=O)cc1[S+]([O-])CC(F)(F)F (centres unmarked) [compound 127],100%,–
1.75,1.78,Cc1cc(F)c(N2C(=O)CN(C(=O)N(C)C)C2=O)cc1[S+]([O-])CC(F)(F)F (centres unmarked) [compound 133],100%,–
3.21,3.28,CC(C)CNC(=O)N1CC(=O)N(c2cc([S+]([O-])CC(F)(F)F)c(Cl)cc2Cl)C1=O (racemic) [compound 113],100%,–
–,–,Cc1cc(F)c(N2C(=O)CNC2=O)cc1SCC(F)(F)F [IIa-1],–,"pest or weed control at 500 g/ha (Tetranychus urticae): 90%; chromatographic logP [1, 2]: 2.11; chromatographic logP [1, 3]: 2.11; chromatographic logP [1, 4]: 2.08; chromatographic logP [1, 5]: 2.08"
3.48,3.38,Cc1cc(C)c(N2C(=O)CN(C(=O)NC(C)C)C2=O)cc1SCC(F)(F)F [compound 22],100%,–
3.23,3.29,O=C(NCc1ccccc1)N1CC(=O)N(c2cc([S+]([O-])CC(F)(F)F)c(Cl)cc2Cl)C1=O (racemic) [compound 115],100%,–
3.80,3.69,Cc1cc(C)c(N2C(=O)CN(C(=O)NCC(C)C)C2=O)cc1SCC(F)(F)F [compound 34],100%,–
4.23,4.16,Cc1cc(F)c(N2C(=O)CN(C(=O)Nc3cccc(Cl)c3)C2=O)cc1SCC(F)(F)F [compound 45],100%,–
2.61,2.65,O=C(NC1CC1)N1CC(=O)N(c2cc([S+]([O-])CC(F)(F)F)c(Cl)cc2Cl)C1=O (racemic) [compound 112],100%,–
3.19,3.13,CCNC(=O)N1CC(=O)N(c2cc(SCC(F)(F)F)c(C)cc2Cl)C1=O [compound 51],100%,–
2.90,2.83,Cc1cc(C)c([S+]([O-])CC(F)(F)F)cc1N1C(=O)CN(C(=O)NC(C)(C)C)C1=O (centres unmarked) [compound 40],100%,–
2.85,2.77,Cc1cc(C)c([S+]([O-])CC(F)(F)F)cc1N1C(=O)CN(C(=O)NCc2ccccc2)C1=O (racemic) [compound 98],90%,–
3.39,3.46,O=C(Nc1ccc(F)cc1)N1CC(=O)N(c2cc([S+]([O-])CC(F)(F)F)c(Cl)cc2Cl)C1=O (racemic) [compound 116],100%,–

logP[a] [1],logP[b] [1],Structure (SMILES),efficacy (spider mites killed) (Tetranychus urticae),other results
–,–,"Cc1cc(F)c(N2C(=O)CNC2=S)cc1SCC(F)(F)F [IIa-2, 3-[2-Fluoro-4-methyl-5-(2,2,2-trifluoroethylsulphanyl)phenyl]-2-thioxoimidazolidin-4-one]",–,"pest or weed control at 500 g/ha (Tetranychus urticae): 100%; chromatographic logP [1, 2]: 2.53; chromatographic logP [1, 3]: 2.53; chromatographic logP [1, 4]: 2.5; chromatographic logP [1, 5]: 2.5"
4.56,4.61,O=C(Nc1cccc(C(F)(F)F)c1)N1CC(=O)N(c2cc(SCC(F)(F)F)c(Cl)cc2Cl)C1=O [compound 110],100%,–
3.94,3.91,Cc1cc(F)c(N2C(=O)C(C)N(C(=O)NCc3ccccc3)C2=O)cc1SCC(F)(F)F (racemic) [compound 81],100%,–
3.64,3.53,Cc1cc(F)c(N2C(=O)CN(C(=O)NCc3ccccc3)C2=O)cc1SCC(F)(F)F [compound 18],90%,–
3.71,3.84,Cc1cc(F)c(N2C(=O)CN(C(=S)NCC(F)(F)F)C2=O)cc1SCC(F)(F)F [compound 102],100%,–
3.17,3.09,Cc1cc(Cl)c(N2C(=O)CN(C(=O)Nc3ccc(F)cc3)C2=O)cc1[S+]([O-])CC(F)(F)F (racemic) [compound 100],100%,–
2.5,1.51,Cc1cc(F)c(N2C(=O)CN(C(=O)N3CCN(C)CC3)C2=O)cc1SCC(F)(F)F [compound 123],100%,–
3.92,4.02,O=C(Nc1cccc(C(F)(F)F)c1)N1CC(=O)N(c2cc([S+]([O-])CC(F)(F)F)c(Cl)cc2Cl)C1=O (racemic) [compound 120],100%,–
4.51,4.42,Cc1cc(F)c(N2C(=O)N(C(=O)NCC(C)C)C(C)(C)C2=O)cc1SCC(F)(F)F [compound 76],100% and 90%,–
2.24,2.17,Cc1cc(C)c([S+]([O-])CC(F)(F)F)cc1N1C(=O)CN(C(=O)NC2CC2)C1=O (centres unmarked) [compound 60],100%,–
3.14,3.04,CCNC(=O)N1CC(=O)N(c2cc(SCC(F)(F)F)c(C)cc2C)C1=O [compound 31],90%,–
3.82,3.71,Cc1cc(F)c(N2C(=O)CN(C(=O)Nc3ccccc3)C2=O)cc1SCC(F)(F)F [compound 16],100%,–
2.99,2.98,Cc1cc(F)c(N2C(=O)CN(C(=O)NCC3CCCO3)C2=O)cc1SCC(F)(F)F (racemic) [compound 67],100%,–
2.23,2.24,CCNC(=O)N1CC(=O)N(c2cc([S+]([O-])CC(F)(F)F)c(C)cc2Cl)C1=O (centres unmarked) [compound 64],100%,–
3.41,3.39,Cc1cc(F)c(N2C(=O)N(C(=O)NCC(C)C)C(C)(C)C2=O)cc1[S+]([O-])CC(F)(F)F (racemic) [compound 86],100%,–
3.93,3.78,Cc1cc(Cl)c(N2C(=O)CN(C(=O)NCC(C)C)C2=O)cc1SCC(F)(F)F [compound 52],100%,–
4.43,4.35,Cc1cc(C)c(N2C(=O)CN(C(=O)Nc3cccc(CC(F)(F)F)c3)C2=O)cc1SCC(F)(F)F [compound 55],90%,–
2.54,2.47,Cc1cc(C)c([S+]([O-])CC(F)(F)F)cc1N1C(=O)CN(C(=O)NCC(F)(F)F)C1=O (centres unmarked) [compound 61],100%,–
2.88,2.91,O=C(NCC(F)(F)F)N1CC(=O)N(c2cc([S+]([O-])CC(F)(F)F)c(Cl)cc2Cl)C1=O (racemic) [compound 114],100%,–
